Test results reported in patent publication US9969743B2, “Urea and amide derivatives of aminoalkylpiperazines and use thereof” (Southern Research Institute, priority 2012, dated 2018).

Legend:
[1] = biological target: human D2 dopamine receptors (HEK cells) (Homo sapiens (Human), UniProt P14416); assay: Whole cell adenylyl cyclase assay, D2; assay type: cell-based; settings: inhibition of forskolin (100 μM) stimulated cAMP, normalized to quinpirole; conc >10× Ki, per compound in Conc (nM); mean ± S.E.M.
Method: Functional Activity. Whole cell adenylyl cyclase assay. The intrinsic activity of the compounds was evaluated by determining their ability to inhibit forskolin-dependent (100 μM) stimulation of adenylyl cyclase activity using a whole cell assay. A whole cell-cyclic AMP accumulation assay was performed with stably transfected HEK cells expressing human D2 or D3 dopamine receptors. This assay is an adaptation of an earlier published method (Su et al., Cyclic Nucleotide Res. 1976, 2, 257-285). Details regarding this method have been published (Chu, W. et al. Bioorg. Med. Chem. 2005, 13, 77-87; Taylor, M. et al. Synapse 2010, 64, 251-266). Confluent (60-80%) HEK cells transfected with recombinant D2-like dopamine receptors were grown in DMEM/10% fetal calf serum containing geneticin in […]. The endogenous ATP pool is radioactively labeled by preincubating the cells in serum-free DMEM/25 mM Hepes medium containing 2 μCi/mL of [2,8-^3H]-adenine (20-Ci/mmol) in a 5% CO2 incubator at 37° C. for 75 min. The radioactive medium was removed by aspiration. Serum-free DMEM (5.6 mL) containing 25 mM HEPES, pH 7.4, and 0.1 mM of the phosphodiesterase inhibitor isobutylmethylxanthine was added to the flask. A 400-μL aliquot of cells was removed and added to 50 μL of forskolin (100 μM) and 50 μL of test drug or quinpirole in DMEM-HEPES. The cells were incubated for 20 min at 37° C. (vortexing every 5 min). The reaction was terminated by the addition of 0.5 mL of 10% trichloroacetic acid (w/v) containing 1.0 mM unlabeled cyclic AMP as a recovery standard. Both the [^3H]-cyclic AMP and the [^3H]-ATP fractions were collected following separation using columns of Dowex AG-50W-X4 and alumina. The final yield of [^3H]-cyclic AMP is corrected for column recovery of unlabeled cyclic AMP determined spectrophotometrically (OD259). The results are reported as percent conversion of [^3H]-ATP into [^3H]-cyclic AMP. The values for the percent inhibition are reported as the actual percent of inhibition of the ^3H-cAMP accumulation relative to the assay performed in the absence of a test compound, minus basal activity. […] The percent maximum response is the value for the inhibition normalized to the value for the full agonist quinpirole.

[2] = biological target: human D2-long dopamine receptor (Homo sapiens (Human), UniProt P14416); assay: Radioligand binding (125I-IABN competition), D2-long dopamine receptor; settings: membranes of stably transfected HEK cells, 37° C. 60 min, Cheng and Prusoff
Method: (§1) Binding Affinity. The affinities of the target compounds were determined using radioligand binding experiments.
(§2) Competition curves were modeled for a single site. Data from competition dose-response curves were analyzed using Tablecurve program (Jandel). IC50 values were converted to equilibrium dissociation constants (Ki values) using the Cheng and Prusoff correction.

[3] = biological target: human D3 dopamine receptor (Homo sapiens (Human), UniProt P35462); assay: Radioligand binding (125I-IABN competition), D3 dopamine receptor; settings: for Ki: 125I-IABN competition, membranes of stably transfected HEK cells, 37° C. 60 min, Cheng and Prusoff; for D2/D3 (D3 selectivity ratio, D2 Ki/D3 Ki): calculated from binding Ki values
Method: as §1, §2

Sequence of human D2-long dopamine receptor (P14416 whole entry): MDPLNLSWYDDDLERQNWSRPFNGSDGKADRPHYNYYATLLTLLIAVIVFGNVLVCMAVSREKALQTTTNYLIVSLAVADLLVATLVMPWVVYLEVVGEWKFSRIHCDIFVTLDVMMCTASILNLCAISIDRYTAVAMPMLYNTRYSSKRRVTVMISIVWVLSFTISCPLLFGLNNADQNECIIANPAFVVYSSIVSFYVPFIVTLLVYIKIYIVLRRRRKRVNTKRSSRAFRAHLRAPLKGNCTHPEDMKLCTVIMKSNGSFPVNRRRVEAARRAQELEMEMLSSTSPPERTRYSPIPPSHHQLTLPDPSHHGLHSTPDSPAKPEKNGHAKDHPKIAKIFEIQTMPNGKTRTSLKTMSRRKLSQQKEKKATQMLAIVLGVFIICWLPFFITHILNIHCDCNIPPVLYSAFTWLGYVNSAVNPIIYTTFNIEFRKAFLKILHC
Sequence of human D2 dopamine receptors (HEK cells) (P14416 whole entry): as above
Sequence of human D3 dopamine receptor (P35462 whole entry): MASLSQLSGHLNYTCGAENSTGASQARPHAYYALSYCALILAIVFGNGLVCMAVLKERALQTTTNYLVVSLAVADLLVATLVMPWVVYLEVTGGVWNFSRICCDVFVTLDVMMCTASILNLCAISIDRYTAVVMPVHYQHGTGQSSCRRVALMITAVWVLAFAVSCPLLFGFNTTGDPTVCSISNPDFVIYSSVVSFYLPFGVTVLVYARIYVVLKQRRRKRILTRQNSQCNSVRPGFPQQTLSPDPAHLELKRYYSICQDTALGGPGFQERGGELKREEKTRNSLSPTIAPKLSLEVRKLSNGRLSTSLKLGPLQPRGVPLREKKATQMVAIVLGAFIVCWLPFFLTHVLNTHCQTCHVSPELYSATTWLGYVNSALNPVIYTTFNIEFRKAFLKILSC

D2 Cyclase % Inhibition Normalized [1]	Ki [2]	Ki [3]	D2/D3 (D3 selectivity ratio, D2 Ki/D3 Ki) [3]	SMILES
Insoluble	–	–	–	CC(C)(C)c1nc(N2CCN(CCCCNC(=O)c3cn4ccncc4n3)CC2)cc(C(F)(F)F)n1 [Compound 115, N-(4-(4-(2-(tert-Butyl)-6-(trifluoromethyl)pyrimidin-4-yl)piperazin-1-yl)butyl)imidazo[1,2-a]pyrazine-2-carboxamide]
Insoluble	–	–	–	CC(C)(C)c1nc(N2CCN(CCCCNC(=O)N3CCC(c4ccccc4)CC3)CC2)cc(C(F)(F)F)n1 [Compound 48, N-(4-(4-(2-(tert-Butyl)-6-(trifluoromethyl)pyrimidin-4-yl)piperazin-1-yl)butyl)-4-phenylpiperidine-1-carboxamide]
–	2440 ± 175 nM	245 ± 46.4 nM	10	CC(C)(C)c1cc(N2CCN(CCCCNC(=O)N3CCc4c([nH]c5ccccc45)C3)CC2)cc(C(C)(C)C)c1 [Compound 97, N-(4-(4-(3,5-Di-tert-butylphenyl)piperazin-1-yl)butyl)-1,3,4,9-tetrahydro-2H-pyrido[3,4-b]indole-2-carboxamide]
Insoluble	–	–	–	CC(C)(C)c1nc(N2CCN(CCCCNC(=O)N3CCN(c4ccccc4)CC3)CC2)c2ccccc2n1 [Compound 13, N-(4-(4-(2-(tert-Butyl)quinazolin-4-yl)piperazin-1-yl)butyl)-4-phenylpiperazine-1-carboxamide]
Insoluble	–	–	–	CC(C)(C)c1nc(N2CCN(CCCCNC(=O)c3cn4nc(Cl)ccc4n3)CC2)cc(C(F)(F)F)n1 [Compound 116, N-(4-(4-(2-(tert-Butyl)-6-(trifluoromethyl)pyrimidin-4-yl)piperazin-1-yl)butyl)-6-chloroimidazo[1,2-b]pyridazine-2-carboxamide]
–	789 ± 45.7 nM	57.1 ± 3.5 nM	–	CC(C)(C)c1nc(C2CC2)cc(N2CCN(CCCCNC(=O)N3CCc4c([nH]c5ccccc45)C3)CC2)n1 [Compound 101, N-(4-(4-(2-(tert-Butyl)-6-cyclopropylpyrimidin-4-yl)piperazin-1-yl)butyl)-1,3,4,9-tetrahydro-2H-pyrido[3,4-b]indole-2-carboxamide]
–	308 ± 29.9 nM	9.5 ± 1.7 nM	33	CC(C)(C)c1cc(N2CCN(CCCCNC(=O)N3CCc4c([nH]c5ccccc45)C3)CC2)nc(C(C)(C)C)n1 [Compound 56, N-(4-(4-(2,6-Di-tert-butylpyrimidin-4-yl)piperazin-1yl)butyl)-1,3,4,9-tetrahydro-2H-pyrido[3,4-b]indole-2-carboxamide]
